The results in this text go back to the supplement of paper PMC12490022.

Each structure is given as a SMILES string. ± gives the uncertainty stated by the source.

The data set deals with ozone. As to the kind of experiment: apparent second-order rate constant for reaction with ozone (kapp,O3) (M-1 s-1); higher = faster oxidation by ozone. Conditions: pH 7; temperature: 22 C; OH radical scavenger: tBuOH 80 mM; phosphate 4 mM. The protocol: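 Apparent second-order rate constants for reaction with ozone at pH 7 were determined by multicompound competition kinetics. Mixtures of targets and competitors (10 ug/L each) were ozonated in 4 mM phosphate buffer, pH 7, with 80 mM tBuOH as OH-radical scavenger, at 22 ± 1 °C. Peak-area abatement was measured by HPLC-HRMS/MS and k was derived from ln-ln slopes against competitors with known k (R2 > 0.9, >= 10 points, slope 0.1-10). Experiments were run in triplicate on 3 days; the value is the mean over valid competitors ± SD.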
Regarding `CC[C@H]1OC(=O)[C@H](C)[C@@H](O[C@H]2C[C@@](C)(OC)[C@@H](O)[C@H](C)O2)[C@H](C)[C@@H](O[C@@H]2O[C@H](C)C[C@H]([N+](C)(C)[O-])[C@H]2O)[C@](C)(O)C[C@@H](C)CN(C)[C@H](C)[C@@H](O)[C@]1(C)O` [Azithromycin-N-oxide], the “apparent second-order rate constant” value was found to be 1150 ± 74. Turning to `COc1cc(OC)nc(NS(=O)(=O)c2ccc(NC(C)=O)cc2)n1` [N4-Acetylsulfadimethoxine], the “apparent second-order rate constant” value worked out at 337000 ± 28000. The value for `COc1ccc(C(CN(C)C)C2(O)CCCCC2)cc1` (configuration not stated) [Venlafaxine] was 3440 ± 260; that for `CN(C)CCOC(c1ccccc1)c1ccccc1` [Diphenhydramine] was 5500 ± 140; that for `CN(C=O)CCC(Oc1ccc(C(F)(F)F)cc1)c1ccccc1` (configuration not stated) [Fluoxetine formamide] was 2.7 ± 0.3.

Take `CCN(CC)CC(=O)Nc1c(C)cccc1C` [Lidocaine]: the “apparent second-order rate constant” value was 185000 ± 17000. For `CC(C)NCC(O)COc1cccc2ccccc12` (configuration not stated) [Propanolol], the “apparent second-order rate constant” value was 174000 ± 16000.

With `N[C@@H](Cc1cc(I)c(O)c(I)c1)C(=O)O` [3,5-Diiodo-L-tyrosine], the “apparent second-order rate constant” value was 2.87e+06 ± 220000.

Consider `CCC(c1cccc(O)c1)C(C)CN(C)C` (configuration not stated) [Tapentadol], for which the “apparent second-order rate constant” value turned out to be 1.83e+06 ± 140000. `O=C(O)Cc1ccccc1Nc1c(Cl)cccc1Cl` [Diclofenac]: the “apparent second-order rate constant” value was 830000 ± 71000. In the case of `CC(C)CC(CN)CC(=O)O` (configuration not stated) [Pregabalin], the “apparent second-order rate constant” value is 15.6 ± 1.1.

In the case of `COC(=O)C1=CCC2CCC1N2C` (configuration not stated) [Anhydroecgonine methyl ester], the “apparent second-order rate constant” value is 44000 ± 10000. The value for `COC(=O)C(c1ccccc1Cl)N1CCc2sccc2C1` (configuration not stated) [Clopidogrel] was 335000 ± 28000. As for `Cc1c(N)c(=O)n(-c2ccccc2)n1C` [4-Aminoantipyrine], the “apparent second-order rate constant” value turned out to be 294000 ± 26000. Turning to `CC(C)(C(=O)O)c1ccc(C(O)CCCN2CCC(C(O)(c3ccccc3)c3ccccc3)CC2)cc1` (configuration not stated) [Fexofenadine], the “apparent second-order rate constant” value worked out at 2950 ± 260. For the compound `Cn1cnc2c1c(=O)[nH]c(=O)n2C` [Theobromine], the “apparent second-order rate constant” value was determined as 1200 ± 65. The value for `Oc1ccc(C(F)(F)F)cc1` [4-Trifluoromethylphenol] was 1.43e+06 ± 150000. Take `CN1CCCC1c1cccnc1` (configuration not stated) [Nicotine]: the “apparent second-order rate constant” value was 332000 ± 30000. Under `CCCC1CC(C(=O)NC(C(C)Cl)C2OC(SC)C(O)C(O)C2O)N(C)C1` (configuration not stated) [Clindamycin] stands 749000 ± 65000; under `O=C(c1ccccc1)c1ccc(Cl)cc1` [4-Chlorobenzophenone], 0.58 ± 0.04; under `Cc1c(CO)cccc1Nc1ccccc1C(=O)O` [3-Hydroxymethylmefenamic acid], 9.3e+07 ± 2e+07.

Turning to `CC=C1N(C)C(C)CC1(c1ccccc1)c1ccccc1` (configuration not stated) [2-Ethylidene-1,5-dimethyl-3,3-diphenylpyrrolidine (EDDP)], the “apparent second-order rate constant” value was found to be 99000 ± 18000. For `CC(=O)Nc1ccc(S(=O)(=O)Nc2ccccn2)cc1` [N4-Acetylsulfapyridine], the “apparent second-order rate constant” value amounted to 947 ± 280. Consider `CC(=O)Nc1ccc(O)c(SCC(NC(=O)CCC(N)C(=O)O)C(=O)NCC(=O)O)c1` (configuration not stated) [Paracetamol-glutathione], for which the “apparent second-order rate constant” value turned out to be 1.1e+07 ± 2.4e+06.

Regarding `CC(CN(C)C)CN1c2ccccc2CCc2ccccc21` (configuration not stated) [Trimipramine], the “apparent second-order rate constant” value was found to be 2e+06 ± 400000. Regarding `O=c1nc[nH]c2c1ncn2C1CCC(CO)O1` (configuration not stated) [Didanosine], the “apparent second-order rate constant” value worked out at 4.5 ± 0.5. For `CC1(C)SC2C(NC(=O)C(N)c3ccc(O)cc3)C(=O)N2C1C(=O)O` (configuration not stated) [Amoxicillin], the “apparent second-order rate constant” value came out at 2.2e+06 ± 190000. On to `CC(NC(C)(C)C)C(O)c1cccc(Cl)c1` (configuration not stated) [Dihydrobupropion], for which the “apparent second-order rate constant” value worked out at 162 ± 8.9.

Take `C#CC[N+](C)([O-])Cc1ccccc1` (configuration not stated) [Pargyline-N-oxide]: the “apparent second-order rate constant” value was found to be 68 ± 8. `CC(CN1c2ccccc2CCc2ccccc21)C[N+](C)(C)[O-]` (configuration not stated) [Trimipramine-N-oxide]: the “apparent second-order rate constant” value stood at 4.8e+06 ± 300000. `CC(C)NC(=O)NS(=O)(=O)c1cnccc1Nc1cccc(C(=O)O)c1` [Torasemide carboxylic acid]: the “apparent second-order rate constant” value is 214 ± 10. On to `NCC(O)COc1ccc(CC(N)=O)cc1` (configuration not stated) [Desisopropylatenolol], for which the “apparent second-order rate constant” value turned out to be 134 ± 7.4. The value for `NCCC(Oc1ccc(C(F)(F)F)cc1)c1ccccc1` (configuration not stated) [Norfluoxetine] was 42 ± 2.5; that for `O=C1CC(c2ccc(O)c(O)c2)Oc2cc(O)cc(O)c21` (configuration not stated) [Eriodictyol] was 1.8e+07 ± 4e+06; that for `CCCc1nc2c(C)cc(-c3nc4ccccc4n3C)cc2n1Cc1ccc(-c2ccccc2C(=O)OC2OC(C(=O)O)C(O)C(O)C2O)cc1` (configuration not stated) [Telmisartan-O-acyl-glucuronide] was 111 ± 5. In the case of `COc1c(C)c2c(c(O)c1CC=C(C)CCC(=O)O)C(=O)OC2` [Mycophenolic acid], the “apparent second-order rate constant” value is 7.2e+07 ± 1.5e+07. On to `COc1ccc2c(c1)c(CC(=O)O)c(C)n2C(=O)c1ccc(Cl)cc1` [Indomethacin], for which the “apparent second-order rate constant” value turned out to be 5.15e+06 ± 670000. For `CN1CCC23c4c5ccc(O)c4OC2C(O)C=CC3C1C5` (configuration not stated) [Morphine], the “apparent second-order rate constant” value turned out to be 3.8e+07 ± 8e+06. Consider `O=c1nc2[nH][nH]cc-2c(=O)[nH]1` [Oxypurinol], for which the “apparent second-order rate constant” value was determined as 4 ± 2.5. As for `CC(C(=O)O)c1cccc(C(=O)c2ccccc2)c1` (configuration not stated) [Ketoprofen], the “apparent second-order rate constant” value was 0.529 ± 0.016. For `Clc1ccc(C(c2ccccc2)N2CCNCC2)cc1` (configuration not stated) [1-(4-Chlorobenzhydryl)piperazine], the “apparent second-order rate constant” value was 7700 ± 630. Take `CNC1(c2ccccc2Cl)CCCCC1=O` (configuration not stated) [Ketamine]: the “apparent second-order rate constant” value was determined as 10400 ± 1000. In the case of `CCC(=O)C(CC(C)N(C)C)(c1ccccc1)c1ccccc1` (configuration not stated) [Methadone], the “apparent second-order rate constant” value stood at 4250 ± 360. `Oc1cnc2c(c1)CCc1cc(Cl)ccc1C2=C1CCNCC1` [3-Hydroxydesloratadine]: the “apparent second-order rate constant” value came to 6.3e+07 ± 1.4e+07. `COc1ccc(C(C[N+](C)(C)[O-])C2(O)CCCCC2)cc1` (configuration not stated) [Venlafaxine-N-oxide]: the “apparent second-order rate constant” value is 168 ± 8.7. In the case of `COc1cc(NS(=O)(=O)c2ccc(N)cc2)nc(OC)n1` [Sulfadimethoxine], the “apparent second-order rate constant” value was determined as 1.53e+06 ± 100000. For the compound `c1ccc2c(c1)Cc1ccccc1N1CCNCC21` (configuration not stated) [Normianserin], the “apparent second-order rate constant” value came to 570000 ± 48000. As to `CC12CCC(=O)C=C1CCC1C2C(=O)CC2(C)C1CCC2(O)C(=O)CO` (configuration not stated) [Cortisone], the “apparent second-order rate constant” value is 436 ± 22. For `CCC(C(N)=O)N1CCCC1=O` (configuration not stated) [Levetiracetam], the “apparent second-order rate constant” value stood at 0.81 ± 0.09. With `CC(NC(C)(C)CO)C(=O)c1cccc(Cl)c1` (configuration not stated) [Hydroxybupropion], the “apparent second-order rate constant” value was 3630 ± 310. In the case of `CC(N)Cc1ccccc1` (configuration not stated) [Amphetamine], the “apparent second-order rate constant” value worked out at 34 ± 4. `C#CCNC(C)Cc1ccccc1` (configuration not stated) [Nordeprenyl]: the “apparent second-order rate constant” value was found to be 14000 ± 1200.
